Experimental data reported in patent publication US8959984B2, “Proteome-wide quantification of small molecule binding to cellular target proteins” (priority 2007, dated 2015).

Columns and labels:
Experiment in all cases: binding to VI16742 beads (HeLa lysate, SILAC MS)
[1] = target: T1, BUB1 (IPI00783305) (Homo sapiens, UniProt O43683)
T1 construct: endogenous in cells; host or cells: HeLa S3
In short: (§1)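 Binders are those proteins retained specifically by an immobilised pyrido[2,3-d]pyrimidine compound, a kinase inhibitor of wide selectivity.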

[2] = target: T2, CDK4 (IPI00007811) (Homo sapiens, UniProt P11802)
T2 construct: endogenous in cells; host or cells: HeLa S3
T2 sequence (P11802 whole entry): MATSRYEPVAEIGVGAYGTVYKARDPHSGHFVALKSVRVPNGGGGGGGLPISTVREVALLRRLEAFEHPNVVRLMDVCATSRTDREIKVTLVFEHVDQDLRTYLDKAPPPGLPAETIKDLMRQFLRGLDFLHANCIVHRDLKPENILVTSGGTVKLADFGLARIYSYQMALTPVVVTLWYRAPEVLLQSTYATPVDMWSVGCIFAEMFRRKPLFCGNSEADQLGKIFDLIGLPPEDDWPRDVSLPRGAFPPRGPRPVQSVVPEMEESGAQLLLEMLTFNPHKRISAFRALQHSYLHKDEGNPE
In short: as §1

[3] = target: T3, TAO1 (TAOK1, IPI00002232) (Homo sapiens, UniProt Q7L7X3)
T3 construct: endogenous in cells; host or cells: HeLa S3
T3 sequence (Q7L7X3 1-1001): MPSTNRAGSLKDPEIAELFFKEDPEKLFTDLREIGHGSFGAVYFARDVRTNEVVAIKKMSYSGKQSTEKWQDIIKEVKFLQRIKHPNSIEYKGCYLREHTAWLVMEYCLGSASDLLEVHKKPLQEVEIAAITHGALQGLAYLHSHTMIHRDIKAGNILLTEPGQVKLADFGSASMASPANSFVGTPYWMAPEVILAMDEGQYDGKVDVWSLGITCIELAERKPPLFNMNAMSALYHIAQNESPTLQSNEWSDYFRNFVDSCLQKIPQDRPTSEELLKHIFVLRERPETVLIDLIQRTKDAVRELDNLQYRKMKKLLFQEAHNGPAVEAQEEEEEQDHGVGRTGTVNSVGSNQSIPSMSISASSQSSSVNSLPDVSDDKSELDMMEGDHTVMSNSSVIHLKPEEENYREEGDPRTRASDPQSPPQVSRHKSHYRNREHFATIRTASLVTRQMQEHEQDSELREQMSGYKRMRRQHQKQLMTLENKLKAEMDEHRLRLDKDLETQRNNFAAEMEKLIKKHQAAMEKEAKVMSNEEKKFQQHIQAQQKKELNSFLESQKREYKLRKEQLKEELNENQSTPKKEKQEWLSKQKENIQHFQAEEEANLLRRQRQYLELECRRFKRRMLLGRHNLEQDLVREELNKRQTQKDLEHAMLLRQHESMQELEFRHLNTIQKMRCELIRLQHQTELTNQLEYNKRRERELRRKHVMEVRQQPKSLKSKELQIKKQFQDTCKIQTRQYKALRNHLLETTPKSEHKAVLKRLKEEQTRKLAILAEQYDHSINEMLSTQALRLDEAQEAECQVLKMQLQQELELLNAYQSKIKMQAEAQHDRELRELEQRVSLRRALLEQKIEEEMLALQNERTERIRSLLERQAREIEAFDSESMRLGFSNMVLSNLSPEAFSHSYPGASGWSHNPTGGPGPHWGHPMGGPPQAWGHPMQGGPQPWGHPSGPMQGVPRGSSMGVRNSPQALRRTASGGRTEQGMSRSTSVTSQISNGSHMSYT
In short: as §1

[4] = target: T4, CSK (IPI00013212) (Homo sapiens, UniProt P41240)
T4 construct: endogenous in cells; host or cells: HeLa S3 cell lysate
T4 sequence (P41240 whole entry): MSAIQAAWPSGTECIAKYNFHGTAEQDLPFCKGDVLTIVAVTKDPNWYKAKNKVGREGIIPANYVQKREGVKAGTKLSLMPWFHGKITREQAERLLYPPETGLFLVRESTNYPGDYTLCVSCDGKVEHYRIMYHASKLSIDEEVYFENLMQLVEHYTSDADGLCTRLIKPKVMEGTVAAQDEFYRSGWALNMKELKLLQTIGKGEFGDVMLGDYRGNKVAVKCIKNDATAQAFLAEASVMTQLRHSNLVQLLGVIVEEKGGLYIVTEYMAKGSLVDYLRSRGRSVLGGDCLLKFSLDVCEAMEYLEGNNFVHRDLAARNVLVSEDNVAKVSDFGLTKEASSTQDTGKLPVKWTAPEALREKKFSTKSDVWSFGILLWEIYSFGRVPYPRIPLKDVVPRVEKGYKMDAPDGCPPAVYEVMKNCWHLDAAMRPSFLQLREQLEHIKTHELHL
In short: as §1

[5] = target: T5, ROCK2 (IPI00307155) (Homo sapiens, UniProt O75116)
T5 construct: endogenous in cells; host or cells: HeLa S3
T5 sequence (O75116 whole entry): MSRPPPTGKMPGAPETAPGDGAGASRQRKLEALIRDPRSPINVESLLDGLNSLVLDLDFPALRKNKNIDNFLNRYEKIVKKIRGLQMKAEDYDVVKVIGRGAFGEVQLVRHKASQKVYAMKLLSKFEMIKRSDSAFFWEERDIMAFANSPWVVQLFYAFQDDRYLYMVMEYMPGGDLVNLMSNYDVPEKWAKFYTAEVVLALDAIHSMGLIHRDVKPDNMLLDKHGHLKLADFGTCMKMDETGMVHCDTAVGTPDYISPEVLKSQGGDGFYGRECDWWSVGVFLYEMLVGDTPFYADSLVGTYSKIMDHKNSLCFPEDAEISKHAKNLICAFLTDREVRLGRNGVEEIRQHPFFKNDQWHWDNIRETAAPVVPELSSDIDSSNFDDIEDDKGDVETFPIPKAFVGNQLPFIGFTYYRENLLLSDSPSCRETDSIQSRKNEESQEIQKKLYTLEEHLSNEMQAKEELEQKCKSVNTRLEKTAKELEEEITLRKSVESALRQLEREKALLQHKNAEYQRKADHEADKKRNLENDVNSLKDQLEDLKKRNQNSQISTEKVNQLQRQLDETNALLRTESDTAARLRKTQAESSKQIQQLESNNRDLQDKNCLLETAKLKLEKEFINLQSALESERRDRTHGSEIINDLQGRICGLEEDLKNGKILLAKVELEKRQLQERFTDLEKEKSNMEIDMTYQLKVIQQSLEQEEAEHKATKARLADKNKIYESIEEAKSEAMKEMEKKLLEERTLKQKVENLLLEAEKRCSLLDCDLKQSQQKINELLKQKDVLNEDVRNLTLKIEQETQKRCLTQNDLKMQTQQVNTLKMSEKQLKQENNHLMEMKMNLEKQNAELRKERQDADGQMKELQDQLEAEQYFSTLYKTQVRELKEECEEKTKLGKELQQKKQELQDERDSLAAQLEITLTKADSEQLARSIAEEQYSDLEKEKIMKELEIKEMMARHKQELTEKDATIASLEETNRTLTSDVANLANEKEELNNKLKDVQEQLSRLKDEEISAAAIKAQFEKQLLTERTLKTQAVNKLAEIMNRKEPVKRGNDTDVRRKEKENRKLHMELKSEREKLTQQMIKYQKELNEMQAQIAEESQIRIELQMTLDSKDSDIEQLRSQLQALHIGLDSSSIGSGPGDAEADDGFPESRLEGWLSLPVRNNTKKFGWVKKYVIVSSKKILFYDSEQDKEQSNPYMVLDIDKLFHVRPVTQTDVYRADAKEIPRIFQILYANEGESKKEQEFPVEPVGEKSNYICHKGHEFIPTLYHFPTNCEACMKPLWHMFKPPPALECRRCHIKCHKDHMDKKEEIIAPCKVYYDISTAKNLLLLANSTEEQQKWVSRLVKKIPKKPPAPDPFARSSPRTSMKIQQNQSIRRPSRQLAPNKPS
In short: as §1

[6] = target: T6, ACLY (IPI00021290) (Homo sapiens, UniProt P53396)
T6 construct: endogenous in cells; host or cells: HeLa S3
T6 sequence (P53396 1-1101): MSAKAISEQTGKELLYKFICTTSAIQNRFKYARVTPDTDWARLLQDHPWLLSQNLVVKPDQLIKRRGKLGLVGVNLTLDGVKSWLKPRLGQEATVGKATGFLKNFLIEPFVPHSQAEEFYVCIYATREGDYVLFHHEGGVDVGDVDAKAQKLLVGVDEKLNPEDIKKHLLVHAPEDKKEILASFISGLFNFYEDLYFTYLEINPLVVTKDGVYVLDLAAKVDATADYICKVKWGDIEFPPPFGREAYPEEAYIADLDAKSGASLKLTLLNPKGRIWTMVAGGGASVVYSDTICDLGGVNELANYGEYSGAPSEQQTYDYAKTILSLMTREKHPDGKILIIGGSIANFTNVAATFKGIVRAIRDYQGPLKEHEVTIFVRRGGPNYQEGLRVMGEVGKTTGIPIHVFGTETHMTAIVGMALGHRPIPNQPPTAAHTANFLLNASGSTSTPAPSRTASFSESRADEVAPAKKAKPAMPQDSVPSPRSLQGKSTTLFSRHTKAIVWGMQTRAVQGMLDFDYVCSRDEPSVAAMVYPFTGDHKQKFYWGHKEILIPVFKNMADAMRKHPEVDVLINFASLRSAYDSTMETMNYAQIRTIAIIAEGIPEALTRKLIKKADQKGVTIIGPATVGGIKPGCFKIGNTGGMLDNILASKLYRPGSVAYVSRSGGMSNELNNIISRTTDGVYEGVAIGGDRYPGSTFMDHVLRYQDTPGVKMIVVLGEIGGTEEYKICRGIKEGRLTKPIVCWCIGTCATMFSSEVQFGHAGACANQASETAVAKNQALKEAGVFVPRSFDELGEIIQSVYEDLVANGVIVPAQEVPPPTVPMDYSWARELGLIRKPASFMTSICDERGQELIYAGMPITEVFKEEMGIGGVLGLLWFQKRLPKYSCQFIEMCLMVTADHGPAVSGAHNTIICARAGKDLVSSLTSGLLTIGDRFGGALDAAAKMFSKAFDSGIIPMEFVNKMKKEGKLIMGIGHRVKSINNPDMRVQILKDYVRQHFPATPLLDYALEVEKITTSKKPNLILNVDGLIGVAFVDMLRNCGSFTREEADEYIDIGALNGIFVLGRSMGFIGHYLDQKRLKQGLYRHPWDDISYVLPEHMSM
In short: as §1

[7] = control beads vs first incubation

T1 sequence (O43683 whole entry): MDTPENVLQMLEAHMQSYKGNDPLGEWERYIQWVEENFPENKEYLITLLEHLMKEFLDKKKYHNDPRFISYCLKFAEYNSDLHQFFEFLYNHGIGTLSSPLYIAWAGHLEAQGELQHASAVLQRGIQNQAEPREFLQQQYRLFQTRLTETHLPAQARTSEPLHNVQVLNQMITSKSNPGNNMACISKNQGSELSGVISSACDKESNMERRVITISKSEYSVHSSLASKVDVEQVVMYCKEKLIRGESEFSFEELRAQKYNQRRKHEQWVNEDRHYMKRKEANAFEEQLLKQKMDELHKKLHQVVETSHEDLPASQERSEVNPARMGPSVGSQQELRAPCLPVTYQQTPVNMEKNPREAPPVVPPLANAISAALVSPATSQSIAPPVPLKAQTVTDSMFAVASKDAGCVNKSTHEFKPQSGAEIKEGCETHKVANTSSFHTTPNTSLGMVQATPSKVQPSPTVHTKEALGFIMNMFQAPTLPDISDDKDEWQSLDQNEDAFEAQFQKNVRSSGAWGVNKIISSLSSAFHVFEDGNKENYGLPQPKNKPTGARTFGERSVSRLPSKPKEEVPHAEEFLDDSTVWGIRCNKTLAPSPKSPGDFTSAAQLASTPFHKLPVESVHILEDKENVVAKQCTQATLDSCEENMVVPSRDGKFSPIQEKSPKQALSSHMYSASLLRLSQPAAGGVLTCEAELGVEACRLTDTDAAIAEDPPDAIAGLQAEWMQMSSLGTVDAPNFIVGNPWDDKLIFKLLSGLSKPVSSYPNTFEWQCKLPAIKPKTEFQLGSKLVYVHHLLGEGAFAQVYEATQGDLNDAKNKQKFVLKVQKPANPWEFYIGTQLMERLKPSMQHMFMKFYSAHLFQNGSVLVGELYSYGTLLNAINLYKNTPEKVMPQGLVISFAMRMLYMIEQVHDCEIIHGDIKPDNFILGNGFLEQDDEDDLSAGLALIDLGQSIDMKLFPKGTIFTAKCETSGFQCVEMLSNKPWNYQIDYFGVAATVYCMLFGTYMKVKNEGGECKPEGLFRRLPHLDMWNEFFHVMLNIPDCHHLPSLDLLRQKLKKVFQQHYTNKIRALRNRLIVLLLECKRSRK

## CC(C)n1c(=O)ccc2cnc(Nc3ccc(OCCN)cc3)nc21 [V16742]
[1]; [7]
  rAVERAGE (CTRL/1 INC): 0.05
[1]; immobilized VI16742
  Ki: 161 µM
[1]; second vs first incubation
  rAVERAGE (2 INC/1 INC): 0.76
[2]; 3 mg vs 1 mg lysate
  r (3 MG/1 MG LYSATE): 1.77
[2]; 5 h vs 2.5 h incubation time
  r (5 h/2.5 h INC. TIME): 1.03
[2]; [7]
  rAVERAGE (CTRL/1 INC): 0.07
[2]; immobilized VI16742
  Ki: 511 µM
[2]; second vs first incubation
  rAVERAGE (2 INC/1 INC): 0.91
[3]; 3 mg vs 1 mg lysate
  r (3 MG/1 MG LYSATE): 2.64
[3]; 5 h vs 2.5 h incubation time
  r (5 h/2.5 h INC. TIME): 1.02
[3]; [7]
  rAVERAGE (CTRL/1 INC): 0.06
[3]; immobilized VI16742
  Ki: 162 µM
[3]; second vs first incubation
  rAVERAGE (2 INC/1 INC): 0.76
[4]; 5 h vs 2.5 h incubation time
  r (5 h/2.5 h INC. TIME): 1.51
[4]; [7]
  rAVERAGE (CTRL/1 INC): 0.02
[4]; immobilized VI16742
  Ki: 79.5 µM
[4]; second vs first incubation
  rAVERAGE (2 INC/1 INC): 0.60
[5]; 3 mg vs 1 mg lysate
  r (3 MG/1 MG LYSATE): 3.18
[5]; 5 h vs 2.5 h incubation time
  r (5 h/2.5 h INC. TIME): 1.74
[5]; [7]
  rAVERAGE (CTRL/1 INC): 0.08
[5]; immobilized VI16742
  Ki: 255 µM
[5]; second vs first incubation
  rAVERAGE (2 INC/1 INC): 0.83
[6]; 3 mg vs 1 mg lysate
  r (3 MG/1 MG LYSATE): 3.59
[6]; 5 h vs 2.5 h incubation time
  r (5 h/2.5 h INC. TIME): 1.98
[6]; [7]
  rAVERAGE (CTRL/1 INC): 0.06
[6]; immobilized VI16742
  Ki: 162 µM
[6]; second vs first incubation
  rAVERAGE (2 INC/1 INC): 0.76
